# Test system: subcutaneous prostate cancer model (PC3)
# Experiment: Tumour specific uptake of Evans Blue after ACT
# Type: in vivo, mice
# Details: Enhancement 0.5 MHz, MI 0 to 0.4, 30 min after treatment
# Description: To investigate the effect of MI variance of the US Enhancement field, tumour specific uptake of Evans Blue (EB, fluorescent dye) has been investigated in a subcutaneous prostate cancer model (PC3) in mice. Five groups with Enhancement insonation MIs of 0, 0.1, 0.2, 0.3 and 0.4 were investigated (N=3 animals per group). […] 30 min after treatment, the tumors were excised and the amount of EB was measured by spectrophotometry at 620 nm.
compound,measurement,value
Cc1cc(-c2ccc(/N=N/c3ccc4c(S(=O)(=O)O)cc(S(=O)(=O)O)c(N)c4c3O)c(C)c2)ccc1/N=N/c1ccc2c(S(=O)(=O)O)cc(S(=O)(=O)O)c(N)c2c1O [Evans Blue],tumour tissue uptake as function of Enhancement MI,"increases from no US (MI=0) to MI=0.1 and further with MI=0.2, but then drops again with MI=0.3 and further with M=0.4"
